Tested on: Trypanosoma brucei rhodesiense STIB900
Assay: Activity against Trypanosoma brucei rhodesiense STIB900 (Alamar Blue assay)
Assay type: cell-based
Details: Trypanosoma brucei, 70 h, bloodstream forms of T. b. rhodesiense STIB 900, 70 h incubation
Description: Activity Against Trypanosoma brucei Rhodesiense STIB900
This stock was isolated in 1982 from a human patient in Tanzania and after several mouse passages cloned and adapted to axenic culture conditions (Baltz, T., D. Baltz, C. Giroud, and J. Crockett. 1985, Cultivation in a semi-defined medium of animal infective forms of Trypanosoma brucei, T. equiperdum, T. evansi, T. rhodesiense and T. gambiense. EMBO Journal 4:1273-1277). Minimum Essential Medium (50 μl) supplemented with 25 mM HEPES, 1 g/l additional glucose, 1% MEM non-essential amino acids (100×), 0.2 mM 2-mercaptoethanol, 1 mM Na-pyruvate and 15% heat inactivated horse serum was added to each well of a 96-well microtiter plate. Serial drug dilutions of eleven 3-fold dilution steps covering a range from […] were prepared. Then 4×10^3 bloodstream forms of T. b. rhodesiense STIB 900 in 50 μl was added to each well and the plate incubated at 37° C. under a 5% CO2 atmosphere for 70 h. 10 μl Alamar Blue (resazurin, 12.5 mg in 100 ml double-distilled water) was then added to each well and incubation continued for a further 2-4 h (Räz, B., M. Iten, Y. Grether-Buhler, R. Kaminsky, and R. Brun. 1997, The Alamar Blue assay to determine drug sensitivity of African trypanosomes (T.b. rhodesiense and T.b. gambiense) in vitro. Acta Trop 68:139-47). Then the plates were read with a Spectramax Gemini XS microplate fluorometer (Molecular Devices Cooperation, Sunnyvale, Calif., USA) using an excitation wave length of 536 nm and an emission wave length of 588 nm. The IC50 values were calculated by linear regression (Huber, W. Koella, J. C. 1993, A comparison of the three methods of estimating EC50 in studies of drug resistance of malaria parasites. Acta Trop. 55, 257-261) from the sigmoidal dose inhibition curves using SoftmaxPro software (Molecular Devices Cooperation, Sunnyvale, Calif., USA). Melarsoprol is used as control.

IC50 [µM] | Compound
0.005 | N#CC1(NC(=O)[C@H](Cc2ccc(OC(F)(F)F)c(Cl)c2)NC(=O)c2cnn(-c3ccc(F)nc3)n2)CC1 [Example 30, N-[(2S)-3-[3-chloro-4-(trifluoromethoxy)phenyl]-1-[(1-cyanocyclopropyl)amino]-1-oxopropan-2-yl]-2-(6-fluoropyridin-3-yl)triazole-4-carboxamide]
0.04 | Cn1ncc(C(=O)N[C@@H](Cc2ccc(OC(F)(F)F)c(Cl)c2)C(=O)NC2(C#N)CC2)n1 [Example 34, N-[(2S)-3-[3-chloro-4-(trifluoromethoxy)phenyl]-1-[(1-cyanocyclopropyl)amino]-1-oxopropan-2-yl]-2-methyltriazole-4-carboxamide]
0.413 | Cn1nc(-c2cccc(Cl)c2)cc1C(=O)N[C@@H](Cc1ccc(OC(F)(F)F)c(Cl)c1)C(=O)NC1(C#N)CC1 [Example 17, (S)—N-(3-(3-chloro-4-(trifluoromethoxy)phenyl)-1-(1-cyanocyclopropylamino)-1-oxopropan-2-yl)-3-(3-chlorophenyl)-1-methyl-1H-pyrazole-5-carboxamide]
0.516 | N#CC1(NC(=O)[C@H](Cc2ccccc2)NC(=O)c2cnn(-c3ccc(F)cc3)n2)CC1 [Example 27, N-[(2S)-1-[(1-cyanocyclopropyl)amino]-1-oxo-3-phenylpropan-2-yl]-2-(4-fluorophenyl)triazole-4-carboxamide]
0.007 | N#CC1(NC(=O)[C@H](Cc2ccc(OC(F)(F)F)c(Cl)c2)NC(=O)c2noc(-c3cccc(Cl)c3)n2)CC1 [Example 18, (S)—N-(3-(3-chloro-4-(trifluoromethoxy)phenyl)-1-(1-cyanocyclopropylamino)-1-oxopropan-2-yl)-5-(3-chlorophenyl)-1,2,4-oxadiazole-3-carboxamide]
0.013 | N#CC1(NC(=O)[C@H](Cc2ccc(OC(F)(F)F)c(Cl)c2)NC(=O)c2cc(-c3ccccc3Cl)n[nH]2)CC1 [Example 10, (S)—N-(3-(3-chloro-4-(trifluoromethoxy)phenyl)-1-(1-cyanocyclopropylamino)-1-oxopropan-2-yl)-3-(2-chlorophenyl)-1H-pyrazole-5-carboxamide]
0.004 | CC(C)(C)n1ncc(C(=O)N[C@@H](Cc2ccc(OC(F)(F)F)c(Cl)c2)C(=O)NC2(C#N)CC2)n1 [Example 37, 2-tert-butyl-N-[(2S)-3-[3-chloro-4-(trifluoromethoxy)phenyl]-1-[(1-cyanocyclopropyl)amino]-1-oxopropan-2-yl]triazole-4-carboxamide]
0.007 | N#CC1(NC(=O)[C@H](Cc2ccc(Cl)c(Cl)c2)NC(=O)c2cnn(-c3ccc(F)cc3)n2)CC1 [Example 29, N-[(2S)-1-[(1-cyanocyclopropyl)amino]-3-(3,4-dichlorophenyl)-1-oxopropan-2-yl]-2-(4-fluorophenyl)triazole-4-carboxamide]
4.43 | Cn1nc(C(C)(C)C)cc1C(=O)N[C@@H](Cc1ccc(OC(F)(F)F)c(Cl)c1)C(=O)NC1(C#N)CC1 [Example 5, (S)-3-tert-butyl-N-(3-(3-chloro-4-(trifluoromethoxy)phenyl)-1-(1-cyanocyclopropylamino)-1-oxopropan-2-yl)-1-methyl-1H-pyrazole-5-carboxamide]
0.02 | Cn1nc(-c2ccccc2)cc1C(=O)N[C@@H](Cc1ccc(OC(F)(F)F)c(Cl)c1)C(=O)NC1(C#N)CC1 [Example 7, (S)—N-(3-(3-chloro-4-(trifluoromethoxy)phenyl)-1-(1-cyanocyclopropylamino)-1-oxopropan-2-yl)-1-methyl-3-phenyl-1H-pyrazole-5-carboxamide]
16.6 | N#CC1(NC(=O)[C@H](Cc2ccc(OC(F)(F)F)c(Cl)c2)NC(c2nnc(-c3ccccc3)o2)C(F)(F)F)CC1 (stereo partly drawn) [Example 22, (2S)-3-(3-chloro-4-(trifluoromethoxy)phenyl)-N-(1-cyanocyclopropyl)-2-(2,2,2-trifluoro-1-(5-phenyl-1,3,4-oxadiazol-2-yl)ethylamino)propanamide]
0.003 | N#CC1(NC(=O)[C@H](Cc2ccc(OC(F)(F)F)c(Cl)c2)NC(=O)c2cc(-c3ccccc3)no2)CC1 [Example 13, (S)—N-(3-(3-chloro-4-(trifluoromethoxy)phenyl)-1-(1-cyanocyclopropylamino)-1-oxopropan-2-yl)-3-phenylisoxazole-5-carboxamide]
